Test results as given in patent publication US11718619B2, “Isoxazolyl-carbonyloxy azabicyclo[3.2.1]octanyl compounds as FXR activators” (ARDELYX, INC., priority 2016, dated 2023).

Assays:
[1] = molecular target: ligand binding domain of human FXR (Homo sapiens (Human), UniProt Q96RI1); experiment: FXR ligand binding assay (LanthaScreen FRET); details: for % Efficacy: extent of activation relative to GW4064; for Emax: read-out: % Efficacy
Description: The affinity of FXR ligands for the ligand binding domain of FXR was determined using a commercially available human FXR ligand binding assay (LanthaScreen, Thermofisher Cat #PV4833). […] Binding of FXR ligands to the FXR ligand binding domain promotes binding of the fluorescein-labelled SRC2-2 peptide. This causes a FRET signal between the terbium-labelled anti-GST antibody and the fluorescein-labelled SRC peptide which are both bound to the FXR ligand binding domain.
Test compounds are dissolved in DMSO and a 3-fold serial dilution series is generated, then further diluted into assay buffer. The compounds are mixed with 5 nM GST-tagged FXR ligand binding domain, 5 nM Tb-labelled anti-GST antibody and 500 nM fluorescein-labelled SRC2-2 peptide in a pH 7.4 buffer. The reaction is incubated at room temperature for 1 hour, then the FRET signal is measured as the ratio of the 520 nm/495 nm emission following excitation at 340 nm. The change in FRET signal is plotted against the test article concentration and fit to a 3-parameter logistical equation.

[2] = molecular target: human Famesoid X receptor ligand-binding domain/Gal4 DNA binding domain chimera (Homo sapiens (Human), UniProt Q96RI1); experiment: Cellular FXR beta-lactamase reporter assay (FXR-UAS-bla HEK 293T); type: cell-based; details: for Emax: HEK-293T, read-out: % Efficacy; for EC50: read-out: FXR pEC50 (converted); for % Efficacy: extent of activation relative to GW4064
Sequence of human Famesoid X receptor ligand-binding domain/Gal4 DNA binding domain chimera (Q96RI1 262-486, stated change not applied): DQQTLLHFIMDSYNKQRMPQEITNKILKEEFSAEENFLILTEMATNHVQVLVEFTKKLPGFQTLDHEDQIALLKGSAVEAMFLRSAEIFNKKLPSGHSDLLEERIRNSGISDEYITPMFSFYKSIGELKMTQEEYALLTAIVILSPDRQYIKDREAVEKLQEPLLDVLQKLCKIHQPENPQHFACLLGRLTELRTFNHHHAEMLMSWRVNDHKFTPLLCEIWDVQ
Description: FXR activation was measured using a cell line and procedure obtained from Life Technologies (Cat #K1691). FXR-UAS-&/a HEK 293T cells contain a human Famesoid X receptor ligand-binding domain/Gal4 DNA binding domain chimera stably integrated into the CellSensor® UAS-bla HEK293T cell line. The CellSensor® UAS-bla HEK293T contains a beta-lactamase reporter gene under control of a UAS response element stably integrated into HEK 293T cells. Activation of FXR by bound ligands results in transcriptional activation of the beta-lactamase reporter gene, which is detected via assay of beta-lactamase activity.
Cells are harvested and diluted into assay medium containing phenol red-free DMEM supplemented with 2% Charcoal-stripped FBS, pyruvate, non-essential amino acids. Cells are then transferred to a 384 well assay plate. Test compounds are dissolved in DMSO and a 3-fold serial dilution series is generated, then further diluted into assay medium. Compounds in assay medium are added to cells in the 384 well plate and allowed to incubate 16 h at 37 C in the presence of 5% CO2.
A FRET-based […] (CCF4) is loaded into cells as its acetomethoxy ester. Intracellular esterases liberate free CCF4, a cephalosporin core linking 7-hydroxycoumarin to fluorescein. In the presence of beta-lactamase activity produced in the presence of FXR agonists, cleavage of CCF4 spatially separates the two dyes and disrupts FRET, so that exciting the coumarin at 409 nm now produces a blue fluorescence signal at 447 nm. The change in FRET signal is plotted against the test compound concentration and fit to a 3-parameter logistical equation.

[3] = test system: fibroblast growth factor 19 (FGF19) secretion in human ileum; experiment: Human Ileum APECCS (FGF19); type: cell-based; details: relative to GW4064
[4] = test system: C57BL/6 male mice fed a Western diet; experiment: Western diet study; type: in vivo, C57BL/6 mice
Description: Six-week-old C57BL/6 male mice were fed a Western diet (WD) (62% fat/0.2% cholesterol). […] An additional control group (lean) was fed a standard rodent chow throughout the study. Body weight measurements and serum samples (tail bleed) were taken weekly. After 6 weeks of treatment, all animals were sacrificed and hepatosteatosis-related endpoints and other liver markers were measured.
Total RNA from mouse tissues was isolated and used for library preparation. Library samples were multiplexed ahead of mRNA sequencing.

Sequence of ligand binding domain of human FXR (Q96RI1 262-486): as the sequence (Q96RI1 262-486, stated change not applied) above

Molecule | Emax [1] | Emax [2] | EC50 [2] | other results
2-[(1R,3S,5S)-3-(5-cyclopropyl-3-{4-methoxybicyclo[2.2.2]octan-1-yl}-1,2-oxazole-4-carbonyloxy)-8-azabicyclo[3.2.1]octan-8-yl]-4-(trifluoromethoxy)-1,3-benzothiazole-6-carboxylic acid [Compound I-58] |  |  |  | % Efficacy [1]: 22%; FXR pEC50 ([1]; pEC50 = −log EC50, FRET signal, SRC2-2 peptide): >4.4; FXR pEC50 ([2]; pEC50 = −log EC50, 16 h incubation): >4.5
CC(C)(C)c1onc(-c2c(Cl)cccc2Cl)c1C(=O)OC1C[C@H]2CC[C@@H](C1)N2c1nc2c(F)cc(C(=O)O)cc2s1 (single isomer, unassigned) [Compound I-25] | 56% | 100% | 0.0251 µM | 
CC1(c2onc(-c3c(Cl)cccc3Cl)c2C(=O)OC2C[C@H]3CC[C@@H](C2)N3c2nc3c(F)cc(C(=O)O)cc3s2)CC1 (single isomer, unassigned) [Compound I-26] | 75% | 106% | 0.0316 µM | 
O=C(O)c1cc(F)c2nc(N3[C@@H]4CC[C@H]3C[C@@H](OC(=O)c3c(-c5ccccc5)noc3C3CC3)C4)sc2c1 [Compound I-13, 2-[(1R,3R,5S)-3-(5-Cyclopropyl-3-phenyl-1,2-oxazole-4-carbonyloxy)-8-azabicyclo[3.2.1]octan-8-yl]-4-fluoro-1,3-benzothiazole-6-carboxylic acid] | 40% | 93% | 1 µM | 
O=C(O)c1cc(F)c2nc(N3[C@@H]4CC[C@H]3C[C@@H](OC(=O)c3c(-c5ccccc5OC(F)(F)F)noc3C3CC3)C4)sc2c1 [Compound I-14, 2-[(1R,3R,5S)-3-{5-cyclopropyl-3-[2-(trifluoromethoxy)phenyl]-1,2-oxazole-4-carbonyloxy}-8-azabicyclo[3.2.1]octan-8-yl]-4-fluoro-1,3-benzothiazole-6-carboxylic acid] | 147% | 116% | 0.00794 µM | 
O=C(O)c1cc(F)c2nc(N3[C@@H]4CC[C@H]3C[C@@H](OC(=O)c3c(-c5c(Cl)cccc5OC(F)F)noc3C3CC3)C4)sc2c1 [Compound I-15, 2-[(1R,3R,5S)-3-{3-[2-chloro-6-(difluoromethoxy)phenyl]-5-cyclopropyl-1,2-oxazole-4-carbonyloxy}-8-azabicyclo[3.2.1]octan-8-yl]-4-fluoro-1,3-benzothiazole-6-carboxylic acid] | 71% | 108% | 0.0398 µM | 
O=C(O)c1cc(F)c2nc(N3[C@@H]4CC[C@H]3C[C@@H](OC(=O)c3c(-c5c(F)cccc5F)noc3C3CC3)C4)sc2c1 [Compound I-16, 2-[(1R,3R,5S)-3-[5-cyclopropyl-3-(2,6-difluorophenyl)-1,2-oxazole-4-carbonyloxy]-8-azabicyclo[3.2.1]octan-8-yl]-4-fluoro-1,3-benzothiazole-6-carboxylic acid] | 47% | 110% | 0.2 µM | 
O=C(O)c1cc(F)c2nc(N3[C@@H]4CC[C@H]3C[C@@H](OC(=O)c3c(C5CCC6(CC5)CC6)noc3C3CC3)C4)sc2c1 [Compound I-19, 2-[(1R,3R,5S)-3-(5-cyclopropyl-3-{spiro[2.5]octan-6-yl}-1,2-oxazole-4-carbonyloxy)-8-azabicyclo[3.2.1]octan-8-yl]-4-fluoro-1,3-benzothiazole-6-carboxylic acid] | 55% | 79% | 0.158 µM | 
O=C(O)c1cc(F)c2nc(N3[C@@H]4CC[C@H]3C[C@@H](OC(=O)c3c(C56CCC(CC5)CC6)noc3C3CC3)C4)sc2c1 [Compound I-20, 2-[(1R,3R,5S)-3-(3-{Bicyclo[2.2.2]octan-1-yl}-5-cyclopropyl-1,2-oxazole-4-carbonyloxy)-8-azabicyclo[3.2.1]octan-8-yl]-4-fluoro-1,3-benzothiazole-6-carboxylic acid] |  |  |  | % Efficacy [2]: 22%
Cc1onc(-c2c(Cl)cccc2Cl)c1C(=O)O[C@H]1C[C@H]2CC[C@@H](C1)N2c1nc2c(F)cc(C(=O)O)cc2s1 [Compound I-23, 2-[(1R,3S,5S)-3-[3-(2,6-dichlorophenyl)-5-methyl-1,2-oxazole-4-carbonyloxy]-8-azabicyclo[3.2.1]octan-8-yl]-4-fluoro-1,3-benzothiazole-6-carboxylic acid] | 37% | 100% | 0.158 µM | 
O=C(O)c1cc(F)c2nc(N3[C@@H]4CC[C@H]3C[C@@H](OC(=O)c3c(-c5c(Cl)cccc5Cl)noc3C3CCC3)C4)sc2c1 [Compound I-24, 2-[(1R,3R,5S)-3-[5-cyclobutyl-3-(2,6-dichlorophenyl)-1,2-oxazole-4-carbonyloxy]-8-azabicyclo[3.2.1]octan-8-yl]-4-fluoro-1,3-benzothiazole-6-carboxylic acid] | 64% | 98% | 0.0316 µM | 
O=C(O)c1cc(F)c2nc(N3[C@@H]4CC[C@H]3C[C@@H](OC(=O)c3c(-c5c(Cl)cccc5Cl)noc3C3(F)CC3)C4)sc2c1 [Compound I-27, 2-[(1R,3R,5S)-3-[3-(2,6-dichlorophenyl)-5-(1-fluorocyclopropyl)-1,2-oxazole-4-carbonyloxy]-8-azabicyclo[3.2.1]octan-8-yl]-4-fluoro-1,3-benzothiazole-6-carboxylic acid] | 107% | 108% | 0.00398 µM | 
Cn1c(N2[C@@H]3CC[C@H]2C[C@@H](OC(=O)c2c(-c4c(Cl)cccc4Cl)noc2C2CC2)C3)nc2c(F)cc(C(=O)O)cc21 [Compound I-31, 2-[(1R,3R,5S)-3-[5-cyclopropyl-3-(2,6-dichlorophenyl)-1,2-oxazole-4-carbonyloxy]-8-azabicyclo[3.2.1]octan-8-yl]-4-fluoro-1-methyl-1H-1,3-benzodiazole-6-carboxylic acid] |  | 100% | 0.398 µM | 
O=C(Cc1c(-c2c(Cl)cccc2Cl)noc1C1CC1)O[C@H]1C[C@H]2CC[C@@H](C1)N2c1nc2c(F)cc(C(=O)O)cc2s1 [Compound I-32, 2-[(1R,3R,5S)-3-({2-[5-cyclopropyl-3-(2,6-dichlorophenyl)-1,2-oxazol-4-yl]acetyl}oxy)-8-azabicyclo[3.2.1]octan-8-yl]-4-fluoro-1,3-benzothiazole-6-carboxylic acid] | 34% | 86% | 0.398 µM | 
CCCS(=O)(=O)NC(=O)c1ccc(N2[C@@H]3CC[C@H]2C[C@@H](OC(=O)c2c(-c4c(Cl)cccc4Cl)noc2C2CC2)C3)cc1 [Compound I-45, (1R,3R,5S)-8-{4-[(propane-1-sulfonyl)carbamoyl]phenyl}-8-azabicyclo[3.2.1]octan-3-yl 5-cyclopropyl-3-(2,6-dichlorophenyl)-1,2-oxazole-4-carboxylate] |  |  |  | % Efficacy [1]: 130%; % Efficacy [2]: 128%
CCCCCS(=O)(=O)NC(=O)c1ccc(N2[C@@H]3CC[C@H]2C[C@@H](OC(=O)c2c(-c4c(Cl)cccc4Cl)noc2C2CC2)C3)cc1 [Compound I-46, (1R,3R,5S)-8-{4-[(pentane-1-sulfonyl)carbamoyl]phenyl}-8-azabicyclo[3.2.1]octan-3-yl 5-cyclopropyl-3-(2,6-dichlorophenyl)-1,2-oxazole-4-carboxylate] |  |  |  | % Efficacy [1]: 146%; % Efficacy [2]: 110%
O=C(NS(=O)(=O)C1CC1)c1ccc(N2[C@@H]3CC[C@H]2C[C@H](OC(=O)c2c(-c4c(Cl)cccc4Cl)noc2C2CC2)C3)cc1 [Compound I-48, (1R,3S,5S)-8-{4-[(cyclopropanesulfonyl)carbamoyl]phenyl}-8-azabicyclo[3.2.1]octan-3-yl 5-cyclopropyl-3-(2,6-dichlorophenyl)-1,2-oxazole-4-carboxylate] |  |  |  | % Efficacy [2]: 130%
CC(C)c1onc(-c2c(Cl)cccc2Cl)c1COc1ccc(/C=C/c2cccc(C(=O)O)c2)c(Cl)c1 [GW4064] |  |  |  | Activity, % (n) [3]: 100 ± 0 (154) %
O=C(O)c1ccc([C@H]2C[C@@H]2c2ccc(OCc3c(-c4c(Cl)cccc4Cl)noc3C3CC3)cc2Cl)cc1 [Px-102] |  |  |  | liver Cyp7a1 gene expression [4]: downregulated; hepatosteatosis related endpoints (including liver triglycerides and liver cholesterol) ([4]; 6 weeks of treatment): normalized; macrovesicular steatosis (score) ([4]; 6 weeks of treatment): reduced; serum FGF15 concentration ([4]; 6 weeks of treatment): further increased; serum cholesterol ([4]; 6 weeks of treatment): reduced; Activity, % (n) ([1]; Human FXR Binding (FRET), relative to GW4064): 90 ± 15 (3) %
